According to patent publication US12528788B2, “Pesticidally active benzene- and azine-amide compounds” (SYNGENTA CROP PROTECTION AG, priority 2018, dated 2026):

Experiments:
Format in all cases: in vivo
Diabrotica balteata = assay: Example B1: Diabrotica balteata (corn root worm), maize sprouts sprayed, L2 larvae; conditions: 96 h, application rate of 200 ppm, 4 days after infestation, L2 larvae on maize sprouts, read-out: control in at least one of the two categories (mortality or growth inhibition)
Experimental: Example B1: Diabrotica balteata (Corn Root Worm)
Maize sprouts placed onto an agar layer in 24-well microtiter plates were treated with aqueous test solutions prepared from 10′000 ppm DMSO stock solutions by spraying. After drying, the plates were infested with L2 larvae (6 to 10 per well). The samples were assessed for mortality and growth inhibition in comparison to untreated samples 4 days after infestation.

Euschistus heros = assay: Example B2: Euschistus heros (neotropical brown stink bug), soybean leaves sprayed, N2 nymphs; conditions: 120 h, application rate of 200 ppm, 5 days after infestation, N2 nymphs on soybean leaves, read-out: control in at least one of the two categories (mortality or growth inhibition)
Experimental: Example B2: Euschistus heros (Neotropical Brown Stink Bug)
Soybean leaves on agar in 24-well microtiter plates were sprayed with aqueous test solutions prepared from 10′000 ppm DMSO stock solutions. After drying the leaves were infested with N2 nymphs. The samples were assessed for mortality and growth inhibition in comparison to untreated samples 5 days after infestation.

Chilo suppressalis = assay: Example B4: Chilo suppressalis (striped rice stemborer), artificial diet, L2 larvae; conditions: 144 h, application rate of 200 ppm, 6 days after infestation, read-out: control in at least one of the three categories (mortality, anti-feedant effect or growth inhibition)
Experimental: Example B4: Chilo suppressalis (Striped Rice Stemborer)
24-well microtiter plates with artificial diet were treated with aqueous test solutions prepared from 10′000 ppm DMSO stock solutions by pipetting. After drying, the plates were infested with L2 larvae (6-8 per well). The samples were assessed for mortality, anti-feeding effect, and growth inhibition in comparison to untreated samples 6 days after infestation. Control of Chilo suppressalis by a test sample is given when at least one of the categories mortality, anti-feedant effect, and growth inhibition is higher than the untreated sample.

Plutella xylostella [1] = assay: Example B5: Plutella xylostella (diamond back moth), artificial diet, 24-well, eggs; conditions: 192 h, application rate of 200 ppm, 8 days after infestation, read-out: control in at least one of the two categories (mortality or growth inhibition)
Experimental: Example B5: Plutella xylostella (Diamond Back Moth)
24-well microtiter plates with artificial diet were treated with aqueous test solutions prepared from 10′000 ppm DMSO stock solutions by pipetting. After drying, Plutella eggs were pipetted through a plastic stencil onto a gel blotting paper and the plate was closed with it. The samples were assessed for mortality and growth inhibition in comparison to untreated samples 8 days after infestation.

Myzus persicae [2] = assay: Example B8: Myzus persicae (green peach aphid) intrinsic activity; conditions: 120 h, test rate of 12 ppm, 5 days after infestation, sucrose solution
Text: Example B8: Myzus persicae (Green Peach Aphid). Intrinsic Activity
Test compounds prepared from 10′000 ppm DMSO stock solutions were applied by pipette into 24-well microtiter plates and mixed with sucrose solution. The plates were closed with a stretched Parafilm. A plastic stencil with 24 holes was placed onto the plate and infested pea seedlings were placed directly on the Parafilm. The infested plate was closed with a gel blotting paper and another plastic stencil and then turned upside down. The samples were assessed for mortality 5 days after infestation.

Spodoptera littoralis [3] = assay: Example B9: Spodoptera littoralis (Egyptian cotton leaf worm), cotton leaf discs sprayed, L1 larvae; conditions: foliar, 72 h, application rate of 200 ppm, 3 days after infestation, read-out: control in at least one of the three categories (mortality, anti-feedant effect or growth inhibition)
Myzus persicae [4] = assay: Example B7: Myzus persicae (green peach aphid) systemic activity; conditions: 144 h, test rate of 24 ppm, 6 days after placing seedlings into test solutions, pea seedlings
Experimental: Example B7: Myzus persicae (Green Peach Aphid) Systemic Activity
Roots of pea seedlings infested with an aphid population of mixed ages were placed directly into aqueous test solutions prepared from 10′000 DMSO stock solutions. The samples were assessed for mortality 6 days after placing seedlings into test solutions.

Spodoptera littoralis [5] = assay: Example B10: Spodoptera littoralis (Egyptian cotton leaf worm), uptake by lettuce roots from agar; conditions: 144 h, test rate of 12.5 ppm, 6 days after infestation, lettuce grown on treated agar, read-out: control in at least one of the three categories (mortality, anti-feeding, or growth inhibition)
Text: Example B10: Spodoptera littoralis (Egyptian Cotton Leaf Worm)
Test compounds were applied by pipette from 10′000 ppm DMSO stock solutions into 24-well plates and mixed with agar. Lettuce seeds were placed onto the agar and the multi well plate was closed by another plate which contained also agar. After 7 days the compound was absorbed by the roots and the lettuce grew into the lid plate. The lettuce leaves were then cut off into the lid plate. Spodoptera eggs were pipetted through a plastic stencil onto a humid gel blotting paper and the lid plate was closed with it. The samples were assessed for mortality, anti-feedant effect and growth inhibition in comparison to untreated samples 6 days after infestation.

Myzus persicae [6] = assay: Example B13: Myzus persicae (green peach aphid), 96-well sucrose solution; conditions: 120 h, application rate of 50 ppm, 5 days after infestation
Text: Example B13: Myzus persicae (Green Peach Aphid)
Test compounds prepared from 10′000 ppm DMSO stock solutions were applied by a liquid handling robot into 96-well microtiter plates and mixed with a sucrose solution. Parafilm was stretched over the 96-well microtiter plate and a plastic stencil with 96 holes was placed onto the plate. Aphids were sieved into the wells directly onto the Parafilm. The infested plates were closed with a gel blotting card and a second plastic stencil and then turned upside down. The samples were assessed for mortality 5 days after infestation.

Plutella xylostella [7] = assay: Example B14: Plutella xylostella (diamondback moth), 96-well artificial diet; conditions: 216 h, application rate of 500 ppm, 9 days after infestation
Experimental: Example B14: Plutella xylostella (Diamondback Moth)
96-well microtiter plates containing artificial diet were treated with aqueous test solutions, prepared from 10′000 ppm DMSO stock solutions, by a liquid handling robot. After drying, eggs (˜30 per well) were infested onto a netted lid which was suspended above the diet. The eggs hatch and L1 larvae move down to the diet. The samples were assessed for mortality 9 days after infestation.

Tetranychus urticae = assay: Example B11: Tetranychus urticae (two-spotted spider mite) feeding/contact activity; conditions: foliar, 192 h, application rate of 200 ppm, 8 days after infestation, bean leaf discs, mixed population (mobile stages)
Experimental: Example B11: Tetranychus urticae (Two-Spotted Spider Mite): Feeding/Contact Activity
Bean leaf discs on agar in 24-well microtiter plates were sprayed with aqueous test solutions prepared from 10′000 ppm DMSO stock solutions. After drying the leaf discs were infested with a mite population of mixed ages. The samples were assessed for mortality on mixed population (mobile stages) 8 days after infestation.

Myzus persicae [8] = assay: Example B6: Myzus persicae (green peach aphid) feeding/contact activity; conditions: foliar, 144 h, application rate of 200 ppm, 6 days after infestation, sunflower leaf discs
Experimental: Example B6: Myzus persicae (Green Peach Aphid) Feeding/Contact Activity
Sunflower leaf discs were placed onto agar in a 24-well microtiter plate and sprayed with aqueous test solutions prepared from 10′000 ppm DMSO stock solutions. After drying, the leaf discs were infested with an aphid population of mixed ages. The samples were assessed for mortality 6 days after infestation.

CC(NC(=O)c1cc(C(F)(F)F)cc(C(F)(F)F)c1)c1nccnc1-c1ncccn1 (stereo not drawn) [Compound P12, N-[1-(3-pyrimidin-2-ylpyrazin-2-yl)ethyl]-3,5-bis(trifluoromethyl)benzamide]
≥ 80%: percent control (mortality or growth inhibition) at 200 ppm (Diabrotica balteata) | percent control (mortality or growth inhibition) at 200 ppm (Euschistus heros) | percent control (mortality, anti-feedant effect or growth inhibition) at 200 ppm (Chilo suppressalis) | percent control (mortality or growth inhibition) at 200 ppm (Plutella xylostella [1]) | mortality at 12 ppm (Myzus persicae [2]) | percent control (mortality, anti-feedant effect or growth inhibition) at 200 ppm (Spodoptera littoralis [3])

CC(NC(=O)c1cc(OCC(F)F)cc(C(F)(F)F)c1)c1nccnc1-c1ncccn1 (stereo not drawn) [Compound P14, 3-(2,2-difluoroethoxy)-N-[1-(3-pyrimidin-2-ylpyrazin-2-yl)ethyl]-5-(trifluoromethyl)benzamide]
≥ 80%: percent control (mortality or growth inhibition) at 200 ppm (Euschistus heros) | percent control (mortality, anti-feedant effect or growth inhibition) at 200 ppm (Chilo suppressalis) | percent control (mortality or growth inhibition) at 200 ppm (Plutella xylostella [1]) | mortality at 24 ppm (Myzus persicae [4]) | mortality at 12 ppm (Myzus persicae [2]) | percent control (mortality, anti-feedant effect or growth inhibition) at 200 ppm (Spodoptera littoralis [3]) | percent control (mortality, anti-feeding or growth inhibition) at 12.5 ppm (Spodoptera littoralis [5]) | mortality at 50 ppm (Myzus persicae [6]) | mortality at 500 ppm (Plutella xylostella [7])

CC(NC(=O)c1cc(C(F)(F)F)nc(C(F)(F)F)c1)c1nccnc1-c1ncccn1 (stereo not drawn) [Compound P15, N-[1-(3-pyrimidin-2-ylpyrazin-2-yl)ethyl]-2,6-bis(trifluoromethyl)pyridine-4-carboxamide]
≥ 80%: percent control (mortality or growth inhibition) at 200 ppm (Diabrotica balteata) | percent control (mortality or growth inhibition) at 200 ppm (Euschistus heros) | percent control (mortality, anti-feedant effect or growth inhibition) at 200 ppm (Chilo suppressalis) | percent control (mortality or growth inhibition) at 200 ppm (Plutella xylostella [1]) | mortality at 12 ppm (Myzus persicae [2]) | percent control (mortality, anti-feedant effect or growth inhibition) at 200 ppm (Spodoptera littoralis [3]) | mortality at 50 ppm (Myzus persicae [6]) | mortality at 500 ppm (Plutella xylostella [7])

CC(NC(=O)c1cc(Cl)cc(OC(F)(F)F)c1)c1nccnc1-c1ncccn1 (stereo not drawn) [Compound P16, 3-chloro-N-[1-(3-pyrimidin-2-ylpyrazin-2-yl)ethyl]-5-(trifluoromethoxy)benzamide]
≥ 80%: percent control (mortality or growth inhibition) at 200 ppm (Diabrotica balteata) | percent control (mortality or growth inhibition) at 200 ppm (Euschistus heros) | percent control (mortality, anti-feedant effect or growth inhibition) at 200 ppm (Chilo suppressalis) | percent control (mortality or growth inhibition) at 200 ppm (Plutella xylostella [1]) | mortality at 12 ppm (Myzus persicae [2]) | percent control (mortality, anti-feedant effect or growth inhibition) at 200 ppm (Spodoptera littoralis [3]) | percent control (mortality, anti-feeding or growth inhibition) at 12.5 ppm (Spodoptera littoralis [5]) | mortality at 50 ppm (Myzus persicae [6]) | mortality at 500 ppm (Plutella xylostella [7])

CC(NC(=O)c1cc(OCC(F)(F)F)cc(C(F)(F)F)c1)c1nccnc1-c1ncccn1 (stereo not drawn) [Compound P17, N-[1-(3-pyrimidin-2-ylpyrazin-2-yl)ethyl]-3-(2,2,2-trifluoroethoxy)-5-(trifluoromethyl)benzamide]
≥ 80%: percent control (mortality or growth inhibition) at 200 ppm (Euschistus heros) | percent control (mortality, anti-feedant effect or growth inhibition) at 200 ppm (Chilo suppressalis) | percent control (mortality or growth inhibition) at 200 ppm (Plutella xylostella [1]) | mortality at 12 ppm (Myzus persicae [2]) | percent control (mortality, anti-feedant effect or growth inhibition) at 200 ppm (Spodoptera littoralis [3]) | mortality at 50 ppm (Myzus persicae [6]) | mortality at 500 ppm (Plutella xylostella [7])

CC(NC(=O)c1cc(C(F)(F)F)cc(C(F)(F)F)c1)c1nccnc1-c1ccc(F)cn1 (stereo not drawn) [Compound P18, N-[1-[3-(5-fluoro-2-pyridyl)pyrazin-2-yl]ethyl]-3,5-bis(trifluoromethyl)benzamide]
≥ 80%: percent control (mortality or growth inhibition) at 200 ppm (Diabrotica balteata) | percent control (mortality, anti-feedant effect or growth inhibition) at 200 ppm (Chilo suppressalis) | percent control (mortality, anti-feedant effect or growth inhibition) at 200 ppm (Spodoptera littoralis [3]) | mortality at 200 ppm (Tetranychus urticae) | mortality at 50 ppm (Myzus persicae [6]) | mortality at 500 ppm (Plutella xylostella [7])

CC(NC(=O)c1cc(Br)cc(C(F)(F)F)c1)c1nccnc1-c1ncccn1 (stereo not drawn) [Compound P20, 3-bromo-N-[1-(3-pyrimidin-2-ylpyrazin-2-yl)ethyl]-5-(trifluoromethyl)benzamide]
≥ 80%: percent control (mortality or growth inhibition) at 200 ppm (Diabrotica balteata) | percent control (mortality or growth inhibition) at 200 ppm (Euschistus heros) | percent control (mortality, anti-feedant effect or growth inhibition) at 200 ppm (Chilo suppressalis) | percent control (mortality or growth inhibition) at 200 ppm (Plutella xylostella [1]) | mortality at 12 ppm (Myzus persicae [2]) | percent control (mortality, anti-feedant effect or growth inhibition) at 200 ppm (Spodoptera littoralis [3]) | percent control (mortality, anti-feeding or growth inhibition) at 12.5 ppm (Spodoptera littoralis [5]) | mortality at 50 ppm (Myzus persicae [6]) | mortality at 500 ppm (Plutella xylostella [7])

CC(NC(=O)c1cc(Cl)cc(C(F)(F)F)c1)c1nccnc1-c1ncccn1 (stereo not drawn) [Compound P21, 3-chloro-N-[1-(3-pyrimidin-2-ylpyrazin-2-yl)ethyl]-5-(trifluoromethyl)benzamide]
≥ 80%: percent control (mortality or growth inhibition) at 200 ppm (Diabrotica balteata) | percent control (mortality or growth inhibition) at 200 ppm (Euschistus heros) | percent control (mortality, anti-feedant effect or growth inhibition) at 200 ppm (Chilo suppressalis) | percent control (mortality or growth inhibition) at 200 ppm (Plutella xylostella [1]) | mortality at 12 ppm (Myzus persicae [2]) | percent control (mortality, anti-feedant effect or growth inhibition) at 200 ppm (Spodoptera littoralis [3]) | percent control (mortality, anti-feeding or growth inhibition) at 12.5 ppm (Spodoptera littoralis [5]) | mortality at 50 ppm (Myzus persicae [6]) | mortality at 500 ppm (Plutella xylostella [7])

CC(NC(=O)c1cc(C(F)F)cc(C(F)(F)F)c1)c1nccnc1-c1ncccn1 (stereo not drawn) [Compound P22, 3-(difluoromethyl)-N-[1-(3-pyrimidin-2-ylpyrazin-2-yl)ethyl]-5-(trifluoromethyl)benzamide]
≥ 80%: percent control (mortality or growth inhibition) at 200 ppm (Diabrotica balteata) | percent control (mortality or growth inhibition) at 200 ppm (Euschistus heros) | percent control (mortality, anti-feedant effect or growth inhibition) at 200 ppm (Chilo suppressalis) | percent control (mortality or growth inhibition) at 200 ppm (Plutella xylostella [1]) | mortality at 24 ppm (Myzus persicae [4]) | mortality at 12 ppm (Myzus persicae [2]) | percent control (mortality, anti-feedant effect or growth inhibition) at 200 ppm (Spodoptera littoralis [3]) | percent control (mortality, anti-feeding or growth inhibition) at 12.5 ppm (Spodoptera littoralis [5]) | mortality at 50 ppm (Myzus persicae [6]) | mortality at 500 ppm (Plutella xylostella [7])

CC(c1nccnc1-c1ncccn1)N(CC1CC1)C(=O)c1cc(OC(F)F)cc(C(F)(F)F)c1 (stereo not drawn) [Compound P24, N-(cyclopropylmethyl)-3-(difluoromethoxy)-N-[1-(3-pyrimidin-2-ylpyrazin-2-yl)ethyl]-5-(trifluoromethyl)benzamide]
≥ 80%: percent control (mortality or growth inhibition) at 200 ppm (Diabrotica balteata) | percent control (mortality, anti-feedant effect or growth inhibition) at 200 ppm (Chilo suppressalis) | percent control (mortality or growth inhibition) at 200 ppm (Plutella xylostella [1]) | mortality at 200 ppm (Myzus persicae [8]) | mortality at 12 ppm (Myzus persicae [2]) | percent control (mortality, anti-feedant effect or growth inhibition) at 200 ppm (Spodoptera littoralis [3]) | mortality at 200 ppm (Tetranychus urticae) | mortality at 50 ppm (Myzus persicae [6])
